Results published in patent US8829007B2 (priority 2009, dated 2014).
Structures can show the parent of a compound that is named as a salt. Where two headings read alike, the source gives them in different places.

Legend:
[1] = test system: influenza A virus (A/PR/8/34); test: microbe, parasite or virus in culture; type: cell-based; details: read-out: IC50 (mean all)
[2] = test system: A/PR/8/34 influenza virus; test: microbe, parasite or virus in culture; type: cell-based; details: read-out: EC50 (mean all)
[3] = Influenza A virus, PR/8, MDCK, MDCK cells infected with A/PR/8/34, survival of infected cells, class symbols
[4] = Influenza A virus, PR/8, MDCK, MDCK cells infected with A/PR/8/34, replication of influenza virus (viral RNA, bDNA), class symbols
[5] = Influenza A virus, PR/8, MDCK, CPE assay, A/PR/8/34 infected MDCK cells, class symbols
[6] = Influenza A virus, PR/8, MDCK, bDNA assay, A/PR/8/34 influenza virus replication in MDCK cells, class symbols
[7] = CPE assay, A/PR/8/34 infected MDCK cells, class symbols
[8] = bDNA assay, A/PR/8/34 influenza virus replication in MDCK cells, class symbols

Structure (SMILES) | IC50 [1, 5] | EC50 [2, 6] | further results
CC1(O)CCC[C@H](Nc2nc(-c3c[nH]c4ncc(Cl)cc34)ncc2F)C1 (some centres unmarked) [Compound 572] | – | – | IC50 ([1]; MDCK cells infected with A/PR/8/34, survival of infected cells, class symbols): < 5 µM; EC50 ([2]; MDCK cells infected with A/PR/8/34, replication of influenza virus (viral RNA, bDNA), class symbols): < 5 µM
O=C(O)[C@@H]1CCCC[C@@H]1Nc1nc(-c2c[nH]c3ncc(Cl)cc23)ncc1F [Compound 578, (1R,2S)-2-(2-(5-chloro-1H-pyrrolo[2,3-b]pyridin-3-yl)-5-fluoropyrimidin-4-ylamino)cyclohexanecarboxylic acid] | – | – | IC50 [1, 3]: < 5 µM; EC50 [2, 4]: < 5 µM
OC[C@@H](O)CN1CCCC(Nc2nc(-c3c[nH]c4ncc(Cl)cc34)ncc2F)C1 (some centres unmarked) [Compound 587] | – | – | IC50 [1, 3]: < 5 µM; EC50 [2, 4]: < 5 µM
COCC(=O)N[C@@H]1CCC[C@H](Nc2nc(-c3c[nH]c4ncc(Cl)cc34)ncc2F)C1 [Compound 591, N-[(1R,3S)-3-[[2-(5-chloro-1H-pyrrolo[2,3-b]pyridin-3-yl)-5-fluoro-pyrimidin-4-yl]amino]cyclohexyl]-2-methoxy-acetamide] | – | – | IC50 [1, 3]: < 5 µM; EC50 [2, 4]: < 5 µM
Fc1cnc(-c2c[nH]c3ncc(Cl)cc23)nc1NC1CCCN(Cc2cnc[nH]2)C1 (centres unmarked) [Compound 594, N-(1-((1H-imidazol-5-yl)methyl)piperidin-3-yl)-2-(5-chloro-1H-pyrrolo[2,3-b]pyridin-3-yl)-5-fluoropyrimidin-4-amine] | – | – | IC50 [1, 3]: < 5 µM; EC50 [2, 4]: < 5 µM
COCCN1CCCC(Nc2nc(-c3c[nH]c4ncc(Cl)cc34)ncc2F)C1 (centres unmarked) [Compound 595] | < 5 µM | < 5 µM | –
CC(C)(C(N)=O)N1CCC[C@H](Nc2nc(-c3c[nH]c4ncc(Cl)cc34)ncc2F)C1 [Compound 598] | < 5 µM | < 5 µM | –
CNC(=O)C(C)(C)N1CCC[C@H](Nc2nc(-c3c[nH]c4ncc(Cl)cc34)ncc2F)C1 [Compound 599] | < 5 µM | < 5 µM | –
CN(C)C(=O)C(C)(C)N1CCC[C@H](Nc2nc(-c3c[nH]c4ncc(Cl)cc34)ncc2F)C1 [Compound 600] | < 5 µM | < 5 µM | –
COCCNC(=O)C(C)(C)N1CCC[C@H](Nc2nc(-c3c[nH]c4ncc(Cl)cc34)ncc2F)C1 [Compound 601] | < 5 µM | < 5 µM | –
CC(C)(C(=O)NC1CC1)N1CCC[C@H](Nc2nc(-c3c[nH]c4ncc(Cl)cc34)ncc2F)C1 [Compound 602] | < 5 µM | < 5 µM | –
NC(=O)C(O)CN1CCCC(Nc2nc(-c3c[nH]c4ncc(Cl)cc34)ncc2F)C1 [Compound 603, 3-((S)-3-((2-(5-chloro-1H-pyrrolo[2,3-b]pyridin-3-yl)-5-fluoropyrimidin-4-ylamino)piperidin-1-yl)-2-hydroxypropanamide] | < 5 µM | < 5 µM | –
O=C(O)C1CNCCC1Nc1nc(-c2c[nH]c3ncc(Cl)cc23)ncc1F (centres unmarked) [Compound 605] | – | – | IC50 [1, 7]: > 10 µM; EC50 [2, 8]: > 3.3 µM
CNC(=O)C(C)N1CCCC(Nc2nc(-c3c[nH]c4ncc(Cl)cc34)ncc2F)C1 [Compound 606, 2-((S)-3-((2-(5-chloro-1H-pyrrolo[2,3-b]pyridin-3-yl)-5-fluoropyrimidin-4-ylamino)piperidin-1-yl)-N-methylpropanamide] | < 5 µM | < 5 µM | –
CC(=O)N1CCC(Nc2nc(-c3c[nH]c4ncc(Cl)cc34)ncc2F)C(C(=O)O)C1 (centres unmarked) [Compound 607] | – | – | IC50 [1, 7]: > 10 µM; EC50 [2, 8]: > 3.3 µM
CCNC(=O)OC1CCCC(Nc2nc(-c3c[nH]c4ncc(Cl)cc34)ncc2F)C1 (centres unmarked) [Compound 608, 3-((2-(5-chloro-1H-pyrrolo[2,3-b]pyridin-3-yl)-5-fluoropyrimidin-4-ylamino)cyclohexyl ethylcarbamate] | – | – | IC50 ([1]; Influenza A virus, PR/8, MDCK): < 5 µM; EC50 ([2]; Influenza A virus, PR/8, MDCK): < 5 µM
COCC(O)CN[C@@H]1CCC[C@H](Nc2nc(-c3c[nH]c4ncc(Cl)cc34)ncc2F)C1 (stereo partly drawn) [Compound 610, 1-[[(1R,3S)-3-[[2-(5-chloro-1H-pyrrolo[2,3-b]pyridin-3-yl)-5-fluoro-pyrimidin-4-yl]amino]cyclohexyl]amino]-3-methoxy-propan-2-ol] | < 5 µM | > 3.3 µM | –
COCCC(=O)N[C@@H]1CCC[C@H](Nc2nc(-c3c[nH]c4ncc(Cl)cc34)ncc2F)C1 [Compound 611] | < 5 µM | < 5 µM | –
NC(=O)CN1CCCC(Nc2nc(-c3c[nH]c4ncc(F)cc34)ncc2F)C1 (centres unmarked) [Compound 613] | – | – | IC50 [1, 7]: < 5 µM; EC50 [2, 8]: < 5 µM
OC(CN1CCCC(Nc2nc(-c3c[nH]c4ncc(Cl)cc34)ncc2F)C1)C(F)(F)F (centres unmarked) [Compound 614] | – | – | IC50 [1, 7]: < 5 µM; EC50 [2, 8]: < 5 µM
O[C@H]1[C@@H](Nc2nc(-c3c[nH]c4ncc(Cl)cc34)ncc2F)CCC[C@@H]1O [Compound 615] | < 5 µM | < 5 µM | –
O[C@H]1[C@H](O)CCC[C@H]1Nc1nc(-c2c[nH]c3ncc(Cl)cc23)ncc1F [Compound 616] | > 10 µM | > 3.3 µM | –

Structure (SMILES) | IC50 [1, 5] | EC50 [2, 6] | further results
C#CC1(O)CCCC(Nc2nc(-c3c[nH]c4ncc(Cl)cc34)ncc2F)C1 (centres unmarked) [Compound 617] | – | – | IC50 [1, 7]: < 5 µM; EC50 [2, 8]: < 5 µM
C#CC1(O)CCCC(Nc2nc(-c3c[nH]c4ncc(Cl)cc34)ncc2F)C1 (centres unmarked) [Compound 618] | – | – | IC50 [1, 7]: < 5 µM; EC50 [2, 8]: < 5 µM
O=C1NCC(CN2CCCC(Nc3nc(-c4c[nH]c5ncc(Cl)cc45)ncc3F)C2)O1 (centres unmarked) [Compound 619] | – | – | IC50 [1, 7]: < 5 µM; EC50 [2, 8]: < 5 µM
Cc1cnc(-c2c[nH]c3ncc(Cl)cc23)nc1N[C@H]1CCCN(CC(N)=O)C1 [Compound 620] | 5 to 20 µM | < 5 µM | –
Fc1cnc(-c2c[nH]c3ncc(Cl)cc23)nc1NC1CCCN(CC2CCOCC2)C1 (centres unmarked) [Compound 621] | – | – | IC50 [1, 7]: < 5 µM; EC50 [2, 8]: < 5 µM
Fc1cnc(-c2c[nH]c3ncc(Cl)cc23)nc1NC1CCCN(CC2CCOC2)C1 (centres unmarked) [Compound 622] | – | – | IC50 [1, 7]: < 5 µM; EC50 [2, 8]: < 5 µM
O=C(C(O)CO)N1CCCC(Nc2nc(-c3c[nH]c4ncc(Cl)cc34)ncc2F)C1 (centres unmarked) [Compound 623] | – | – | IC50 [1, 7]: < 5 µM; EC50 [2, 8]: < 5 µM
O[C@@H]1[C@@H](O)CCC[C@H]1Nc1nc(-c2c[nH]c3ncc(Cl)cc23)ncc1F [Compound 624] | < 5 µM | 5 to 10 µM | –
O[C@H]1[C@H](O)CCC[C@@H]1Nc1nc(-c2c[nH]c3ncc(Cl)cc23)ncc1F [Compound 625] | < 5 µM | < 5 µM | –
CCC1(O)CCCC(Nc2nc(-c3c[nH]c4ncc(Cl)cc34)ncc2F)C1 (centres unmarked) [Compound 626] | < 5 µM | < 5 µM | –
C=CC1(O)CCCC(Nc2nc(-c3c[nH]c4ncc(Cl)cc34)ncc2F)C1 (centres unmarked) [Compound 627] | – | – | IC50 [1, 7]: < 5 µM; EC50 [2, 8]: < 5 µM
C=CC1(O)CCCC(Nc2nc(-c3c[nH]c4ncc(Cl)cc34)ncc2F)C1 (centres unmarked) [Compound 628] | – | – | IC50 [1, 7]: < 5 µM; EC50 [2, 8]: < 5 µM
CC(C)(C)c1nc(-c2c[nH]c3ncc(Cl)cc23)nc(N[C@H]2CCCC[C@@H]2C(=O)O)c1F [Compound 629, (1S,2S)-2-(6-tert-butyl-2-(5-chloro-1H-pyrrolo[2,3-b]pyridin-3-yl)-5-fluoropyrimidin-4-ylamino)cyclohexanecarboxylic acid] | < 5 µM | < 5 µM | –
O=C(O)[C@@H]1CCC[C@H](Nc2nc(-c3c[nH]c4ncc(Cl)cc34)ncc2F)C1 [Compound 630] | < 5 µM | < 5 µM | –
O[C@H]1[C@@H](O)CCC[C@H]1Nc1nc(-c2c[nH]c3ncc(Cl)cc23)ncc1F [Compound 631] | < 5 µM | < 5 µM | –
O[C@@H]1[C@H](O)CCC[C@@H]1Nc1nc(-c2c[nH]c3ncc(Cl)cc23)ncc1F [Compound 632] | < 5 µM | < 5 µM | –
O=C(N[C@@H]1CCC[C@H](Nc2nc(-c3c[nH]c4ncc(Cl)cc34)ncc2F)C1)C1CCCOC1 (stereo partly drawn) [Compound 633, N-[(1R,3S)-3-[[2-(5-chloro-1H-pyrrolo[2,3-b]pyridin-3-yl)-5-fluoro-pyrimidin-4-yl]amino]cyclohexyl]tetrahydropyran-3-carboxamide hydrochloride] | < 5 µM | < 5 µM | –
O=C(CCO)N[C@@H]1CCC[C@H](Nc2nc(-c3c[nH]c4ncc(Cl)cc34)ncc2F)C1 [Compound 634, N-[(1R,3S)-3-[[2-(5-chloro-1H-pyrrolo[2,3-b]pyridin-3-yl)-5-fluoro-pyrimidin-4-yl]amino]cyclohexyl]-3-hydroxy-propanamide hydrochloride] | < 5 µM | < 5 µM | –
CC1(C(=O)N[C@@H]2CCC[C@H](Nc3nc(-c4c[nH]c5ncc(Cl)cc45)ncc3F)C2)COC1 [Compound 635, N-[(1R,3S)-3-[[2-(5-chloro-1H-pyrrolo[2,3-b]pyridin-3-yl)-5-fluoro-pyrimidin-4-yl]amino]cyclohexyl]-3-methyl-oxetane-3-carboxamide hydrochloride] | < 5 µM | < 5 µM | –
O=C(N[C@@H]1CCC[C@H](Nc2nc(-c3c[nH]c4ncc(Cl)cc34)ncc2F)C1)C1CCOCC1 [Compound 636, N-[(1R,3S)-3-[[2-(5-chloro-1H-pyrrolo[2,3-b]pyridin-3-yl)-5-fluoro-pyrimidin-4-yl]amino]cyclohexyl]tetrahydropyran-4-carboxamide hydrochloride] | < 5 µM | < 5 µM | –
O=C(N[C@@H]1CCC[C@H](Nc2nc(-c3c[nH]c4ncc(Cl)cc34)ncc2F)C1)C1CNCCO1 (stereo partly drawn) [Compound 637, N-[(1R,3S)-3-[[2-(5-chloro-1H-pyrrolo[2,3-b]pyridin-3-yl)-5-fluoro-pyrimidin-4-yl]amino]cyclohexyl]morpholine-2-carboxamide bishydrochloride] | < 5 µM | < 5 µM | –
